Measurements reported in patent US20190194209A1, “PYRAZOLE CARBOXAMIDE COMPOUNDS AND METHODS OF USE” (Genentech, Inc., priority 2014, published 2019).

How the values were obtained:
[1] = target: T1, full length human wildtype Btk (Homo sapiens, UniProt Q06187); test: Biochemical Btk Kinase Assay (Example 901); conditions: read-out: BTK LC3K (Ki)
T1 construct: V5 (C); 6xHis (C); made in house; host or cells: Sf9 cells (baculovirus, pFastBac)
Method: Formula I compounds were tested by a standard biochemical Btk, Kinase Assay (Example 901). A generalized procedure for a standard biochemical Btk, Kinase Assay that can be used to test Formula I compounds is as follows. A master mix minus Btk enzyme is prepared containing 1× Cell Signaling kinase buffer (25 mM Tris-HCl, pH 7.5, 5 mM beta-glycerophosphate, 2 mM dithiothreitol, 0.1 mM Na3VO4, 10 mM MgCl2), 0.5 μM Promega PTK Biotinylated peptide substrate 2, and 0.01% BSA. A master mix plus Btk enzyme is prepared containing 1× Cell Signaling kinase buffer, 0.5 μM (micromolar) PTK Biotinylated peptide substrate 2, 0.01% BSA, and 100 ng/well (0.06 mU/well) Btk enzyme. Btk enzyme is prepared as follows: full length human wildtype Btk (accession number NM-000061) with a C-terminal V5 and 6×His tag was subcloned into pFastBac® vector (Invitrogen/Life Technologies) for making baculovirus carrying this epitope-tagged Btk. Generation of baculovirus is done based on Invitrogen's instructions detailed in its published protocol “Bac-to-Bac Baculovirus Expression Systems” (Invitrogen/Life Technologies, Cat. Nos. 10359-016 and 10608-016). Passage 3 virus is used to infect Sf9 cells to overexpress the recombinant Btk protein. The Btk protein is then purified to homogeneity using Ni-NTA column. The purity of the final protein preparation is greater than 95% based on the sensitive Sypro-Ruby staining. A solution of 200 μM ATP is prepared in water and adjusted to pH 7.4 with 1N NaOH. A quantity of 1.25 μL (microliter) of compounds in 5% DMSO is transferred to a 96-well 2 area Costar polystyrene plate. Compounds are tested singly and with an 11-point dose-responsive curve (starting concentration is 10 μM; 1:2 dilution). A quantity of 18.75 μL of master mix minus enzyme (as a negative control) and master mix plus enzyme is transferred to appropriate wells in 96-well 2 area costar polystyrene plate. 5 μL of 200 μM ATP is added to that mixture in the 96-well 2 area Costar polystyrene plate for final ATP concentration of 40 μM. The reaction is allowed to incubate for 1 hour at room temperature. The reaction is stopped with Perkin Elmer 1× detection buffer containing 30 mM EDTA, 20 nM SA-APC, and 1 nM PT66 Ab. The plate is read using time-resolved fluorescence with a Perkin Elmer Envision using excitation filter 330 nm, emission filter 665 nm, and 2nd emission filter 615 nm. IC50 values are subsequently calculated. Alternatively, the Lanthascreen assay can be used to evaluate Btk activity through quantification of its phosphorylated peptide product. The FRET (Fluorescence Resonance Energy Transfer) that occurs between the fluorescein on the peptide product and the terbium on the detection antibody decreases with the addition of inhibitors of Btk that reduce the phosphorylation of the peptide. In a final reaction volume of 25 μL (microliters), Btk (h) (0.1 ng/25 μl reaction) is incubated with 50 mM Hepes pH 7.5, 10 mM MgCl2, 2 mM MnCl2, 2 mM DTT, 0.2 mM NaVO4, 0.01% BSA, and 0.4 uM fluorescein poly-GAT. The reaction is initiated by the addition of ATP to 25 μM (micromolar) the Km of ATP. After incubation for 60 minutes at room temperature, the reaction is stopped by the addition of a final concentration of 2 nM Tb-PY20 detection antibody in 60 mM EDTA for 30 minutes at room temperature. Detection is determined on a Perkin Elmer Envision with 340 nm excitation and emission at 495 nm and 520 nm. Exemplary Btk inhibition […] values are in Table 1.

[2] = system: CD69 production by B lymphocytes in human whole blood activated with goat F(ab')2 anti-human IgM; test: CD69 Whole Blood Assay (Example 907); format: cell-based; conditions: Lymphocyte; human whole blood, anti-IgM stimulated, 20 hour incubation, CD20 positive cells, FACS; read-out: CD69 Hu Blood FACS (IC70)
From the text: A CD69 Whole Blood Assay can be conducted on Formula I compounds to determine the ability of compounds to inhibit the production of CD69 by B lymphocytes in human whole blood activated by crosslinking surface IgM with goat F(ab′)2 anti-human IgM (Example 907). CD69 is a type II C-type lectin involved in lymphocyte migration and cytokine secretion. CD69 expression represents one of the earliest available indicators of leukocyte activation and its rapid induction occurs through transcriptional activation (Vazquez et al (2009) Jour. of Immunology Published Oct. 19, 2009, doi: 10.4049/jimmunol.0900839). Concentration-dependent inhibition of antigen receptor stimulation by selective Btk inhibitors induces cell surface expression of the lymphocyte activation marker CD69 (Honigberg et al (2010) Proc. Natl. Acad. Sci. 107(29):13075-13080). Thus, CD69 inhibition by selective Btk inhibitors may be correlated with therapeutic efficacy of certain B-cell disorders.
Human blood is obtained from healthy volunteers, with the following restrictions: 1 week drug-free, non-smokers. Blood (approximately 20 mls to test 8 compounds) is collected by venipuncture into Vacutainer® (Becton, Dickinson and Co.) tubes with sodium heparin.
Solutions of Formula I compounds at 10 mM in DMSO are diluted 1:10 in 100% DMSO, then are diluted by three-fold serial dilutions in 100% DMSO for a ten point dose-response curve. The compounds are further diluted 1:10 in PBS and then an aliquot of 5.5 μl of each compound is added in duplicate to a 2 ml 96-well plate; 5.5 μl of 10% DMSO in PBS is added as control and no-stimulus wells. Human whole blood—HWB (100 μl) is added to each well. After mixing the plates are incubated at 37° C., 5% CO2, 100% humidity for 30 minutes. Goat F(ab′)2 anti-human IgM (10 μl of a 500 μg/ml solution, 50 μg/ml final) is added to each well (except the no-stimulus wells) with mixing and the plates are incubated for an additional 20 hours. At the end of the 20 hour incubation, samples are incubated with fluorescent labeled antibodies for 30 minutes, at 37° C., 5% CO2, 100% humidity. Include induced control, unstained and single stains for compensation adjustments and initial voltage settings. Samples are then lysed with PharM Lyse™ (BD Biosciences Pharmingen) according to the manufacturer's instructions. Samples are then transferred to a 96 well plate suitable to be run on the BD Biosciences HTS 96 well system on the LSRII machine. Data acquired and Mean Fluorescence Intensity values were obtained using BD Biosciences DIVA Software. Results are initially analyzed by FACS analysis software (Flow Jo).

T1 sequence (Q06187 whole entry): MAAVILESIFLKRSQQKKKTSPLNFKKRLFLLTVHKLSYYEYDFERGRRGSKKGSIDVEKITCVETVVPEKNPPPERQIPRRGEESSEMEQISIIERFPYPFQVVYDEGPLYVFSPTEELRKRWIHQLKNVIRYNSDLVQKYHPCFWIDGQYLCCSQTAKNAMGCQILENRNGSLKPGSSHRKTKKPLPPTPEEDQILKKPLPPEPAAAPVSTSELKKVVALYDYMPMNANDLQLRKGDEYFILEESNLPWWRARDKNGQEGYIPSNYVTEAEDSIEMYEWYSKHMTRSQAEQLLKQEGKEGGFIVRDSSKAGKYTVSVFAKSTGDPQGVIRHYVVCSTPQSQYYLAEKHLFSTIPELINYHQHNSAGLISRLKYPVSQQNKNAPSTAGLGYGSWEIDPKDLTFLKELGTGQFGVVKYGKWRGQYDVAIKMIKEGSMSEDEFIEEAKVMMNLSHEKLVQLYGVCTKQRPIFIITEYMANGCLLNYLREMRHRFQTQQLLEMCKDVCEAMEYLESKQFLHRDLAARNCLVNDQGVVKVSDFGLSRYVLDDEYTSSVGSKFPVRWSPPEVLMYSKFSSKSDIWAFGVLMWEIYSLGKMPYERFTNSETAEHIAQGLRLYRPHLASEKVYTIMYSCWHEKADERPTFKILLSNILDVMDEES

| Compound | Ki [1] [nM] | IC70 [2] [nM] |
| --- | --- | --- |
| Cn1cc(Nc2nn(-c3ccnc(N4CCn5c(cc6c5CC(C)(C)C6)C4=O)c3CO)cc2C(N)=O)nn1 [Example 119, 1-[2-(7,7-dimethyl-4-oxo-1,2,6,8-tetrahydrocyclopenta[3,4]pyrrolo[3,5-b]-pyrazin-3-yl)-3-(hydroxymethyl)-4-pyridyl]-3-[(1-methyltriazol-4-yl)amino]pyrazole-4-carboxamide] | 0.317 | 47.2 |
| CC1(C)Cc2cc3n(c2C1)CCN(c1nccc(-n2cc(C(N)=O)c(NC(=O)[C@@H]4C[C@@H]4F)n2)c1CO)C3=O [Example 112, 1-[2-(7,7-dimethyl-4-oxo-1,2,6,8-tetrahydrocyclopenta[3,4]pyrrolo[3,5-b]pyrazin-3-yl)-3-(hydroxymethyl)-4-pyridyl]-3-[(2-fluorocyclopropanecarbonyl)amino]pyrazole-4-carboxamide] | 0.436 | 100 |
| CC1(C)Cc2cc3n(c2C1)CCN(c1nccc(-n2nc(C(N)=O)c4ccccc42)c1CO)C3=O [Example 108, 1-[2-(7,7-dimethyl-4-oxo-1,2,6,8-tetrahydrocyclopenta[3,4]pyrrolo[3,5-b]pyrazin-3-yl)-3-(hydroxymethyl)-4-pyridyl]indazole-3-carboxamide] | 1.83 | 726 |
| CC1(C)Cc2cc3n(c2C1)CCN(c1cccc(-n2cc(C(N)=O)c(Nc4ccncn4)n2)c1CO)C3=O [Example 104, 1-[3-(7,7-dimethyl-4-oxo-1,2,6,8-tetrahydrocyclopenta[3,4]pyrrole[3,5-b]pyrazin-3-yl)-2-(hydroxymethyl)phenyl]-3-(pyrimidin-4-ylamino)pyrazole-4-carboxamide] | 0.249 | 36.2 |
| CC1(C)Cc2cc3n(c2C1)CCN(c1cccc(-n2cc(C(N)=O)c(Nc4ccccn4)n2)c1CO)C3=O [Example 102, 1-[3-(7,7-dimethyl-4-oxo-1,2,6,8-tetrahydrocyclopenta[3,4]pyrrolo[3,5-b]pyrazin-3-yl)-2-(hydroxymethyl)phenyl]-3-(2-pyridylamino)pyrazole-4-carboxamide] | 1.01 | 166 |
| CC(C)(C)c1cc(F)c2c(=O)n(-c3nccc(-n4cc(C(N)=O)c(Nc5ccc(N6CCNCC6)cn5)n4)c3CO)ncc2c1 [Example 118, 1-[2-(6-tert-butyl-8-fluoro-1-oxo-phthalazin-2-yl)-3-(hydroxymethyl)-4-pyridyl]-3-[(5-piperazin-1-yl-2-pyridyl)amino]pyrazole-4-carboxamide] | 0.248 | 574 |
| C[C@H]1CN(C2COC2)CCN1c1ccc(Nc2nn(-c3cc(F)cc(N4CCn5c(cc6c5CC(C)(C)C6)C4=O)c3CO)cc2C(N)=O)nc1 [Example 145, 1-[3-(7,7-dimethyl-4-oxo-1,2,6,8-tetrahydrocyclopenta[3,4]pyrrolo[3,5-b]pyrazin-3-yl)-5-fluoro-2-(hydroxymethyl)phenyl]-3-[[5-[(2S)-2-methyl-4-(oxetan-3-yl)piperazin-1-yl]-2-pyridyl]amino]pyrazole-4-carboxamide] | 0.103 | 30.4 |
| CC1(C)Cc2cc3n(c2C1)CCN(c1nccc(-n2nc(C(N)=O)c4cccnc42)c1CO)C3=O [Example 110, 1-[2-(7,7-dimethyl-4-oxo-1,2,6,8-tetrahydrocyclopenta[3,4]pyrrolo[3,5-b]pyrazin-3-yl)-3-(hydroxymethyl)-4-pyridyl]pyrazolo[3,4-b]pyridine-3-carboxamide] | 3.32 | 5300 |
| CC1(C)Cc2cc3n(c2C1)CCN(c1nccc(-n2cc(NC(=O)C4CC4)c(C(N)=O)n2)c1CO)C3=O [Example 109, 4-(cyclopropanecarbonylamino)-1-[2-(7,7-dimethyl-4-oxo-1,2,6,8-tetrahydrocyclopenta[3,4]pyrrolo[3,5-b]pyrazin-3-yl)-3-(hydroxymethyl)-4-pyridyl]pyrazole-3-carboxamide] | 0.924 | 47.4 |
